Active and inactive are the calls of the source. No cut-off for these calls is given here.
How the values were obtained:
Coxsackievirus A16 [1] = experiment: Antiviral activity against Coxsackievirus A16 TA271 infected in RD cells assessed as effect on viral load at release stage at 0.08 uM/L preincubated with cells for 1 hr followed by replacement of fresh medium containing compounds for 16 hrs and measured after 48 hrs post infection by RT-PCR analysis; format: functional, cell-based
Coxsackievirus A16 [2] = experiment: Antiviral activity against Coxsackievirus A16 TA271 infected in ICR mouse assessed as reduction in muscle fiber breakage in lung at 2 mg/kg, im after 5 days post infection by H and E staining based histopathological analysis; format: functional, organism-based
Coxsackievirus A16 [3] = experiment: Antiviral activity against Coxsackievirus A16 TA271 infected in ICR mouse assessed as effect on virus-induced IL-6 level at 0.08 uM/L preincubated with viral suspension for 2 hrs followed by intramuscular administration after 3 days post infection by ELISA; format: functional
Coxsackievirus A16 [4] = experiment: Antiviral activity against Coxsackievirus A16 TA271 infected in ICR mouse assessed as mild alveolar fibrosis in lung at 2 mg/kg, im after 5 days post infection by H and E staining based histopathological analysis; format: functional, organism-based
Coxsackievirus A16 [5] = experiment: Antiviral activity against Coxsackievirus A16 TA271 infected in ICR mouse assessed as mild alveolar fibrosis in heart at 2 mg/kg, im after 5 days post infection by H and E staining based histopathological analysis; format: functional, organism-based
Coxsackievirus A16 [6] = experiment: Antiviral activity against Coxsackievirus A16 TA271 infected in ICR mouse assessed as reduction in viral load in heart at 2 mg/kg, im after 3 to 5 days post infection by RT-PCR analysis; format: functional, organism-based
Coxsackievirus A16 [7] = experiment: Antiviral activity against Coxsackievirus A16 LW614 infected in RD cells assessed as reduction in viral genome copies at 0.08 uM/L preincubated with viral suspension for 2 hrs followed by cell addition and measured at 24 hrs post infection by RT-PCR analysis; format: functional, cell-based
Coxsackievirus A16 [8] = experiment: Antiviral activity against Coxsackievirus A16 TA271 infected in RD cells assessed as effect on viral load at replication stage at 0.08 uM/L preincubated for 1 hr followed by replacement of medium containing compound for 5 hrs and measured after 48 hrs post infection by RT-PCR analysis; format: functional, cell-based
Coxsackievirus A16 [9] = experiment: Antiviral activity against Coxsackievirus A16 TA271 infected in ICR mouse assessed as reduction in virus-induced IFN-gamma level at 0.08 uM/L preincubated with viral suspension for 2 hrs followed by intramuscular administration after 3 days post infection by ELISA; format: functional
Coxsackievirus A16 [10] = experiment: Antiviral activity against Coxsackievirus A16 TA271 infected in ICR mouse assessed as reduction in viral load in spinal muscle at 0.08 uM/L preincubated with viral suspension for 2 hrs followed by intramuscular administration after 3 to 5 days post infection by RT-PCR analysis; format: functional
Coxsackievirus A16 [11] = experiment: Antiviral activity against Coxsackievirus A16 TA271 infected in ICR mouse assessed as reduction in muscle fiber breakage in hind limb muscle at 2 mg/kg, im after 5 days post infection by H and E staining based histopathological analysis; format: functional, organism-based
Mus musculus [12] = experiment: Effect on IL-6 level in ICR mouse at 2 mg/kg, administered intramuscularly by ELISA; format: functional, organism-based
Coxsackievirus A16 [13] = experiment: Antiviral activity against Coxsackievirus A16 TA271 infected in ICR mouse assessed as mouse survival at 0.08 uM/L preincubated with viral suspension for 2 hrs followed by intramuscular administration and measured on day 7 post infection relative to control; format: functional; settings: Enterovirus A, TA271, im
Coxsackievirus A16 [14] = experiment: Antiviral activity against Coxsackievirus A16 TA271 infected in RD cells at replication stage assessed as appearance of rounded cells at 0.08 uM/L 1 hr post-infection viral inoculum was removed and cells incubated with medium containing compound and measured after 5 hrs by inverted microscopic analysis; format: functional, cell-based
Coxsackievirus A16 [15] = experiment: Antiviral activity against Coxsackievirus A16 TA271 infected in RD cells at preinfection stage assessed as increase in intracytoplasmic granules at 0.08 uM/L preincubated with cells for 3 hrs followed by viral infection and measured after 1 hr by inverted microscopic analysis; format: functional, cell-based
Coxsackievirus A16 [16] = experiment: Antiviral activity against Coxsackievirus A16 TA271 infected in ICR mouse assessed as mild alveolar wall thickening in heart at 2 mg/kg, im after 5 days post infection by H and E staining based histopathological analysis; format: functional, organism-based
Coxsackievirus A16 [17] = experiment: Antiviral activity against Coxsackievirus A16 TA271 infected in ICR mouse assessed as reduction in lesions in heart at 2 mg/kg, im after 5 days post infection by H and E staining based histopathological analysis; format: functional, organism-based
Coxsackievirus A16 [18] = experiment: Antiviral activity against Coxsackievirus A16 TA271 infected in ICR mouse assessed as reduction in inflammatory cell infiltration in hind limb muscle at 2 mg/kg, im after 5 days post infection by H and E staining based histopathological analysis; format: functional, organism-based
[19] = Selectivity index, ratio of CC50 for cytotoxicity against human RD cells to EC50 for antiviral activity against Coxsackievirus A16 TA271 infected in human RD cells; format: toxicity, cell-based; settings: read-out: Ratio CC50/EC50
Coxsackievirus A16 [20] = experiment: Antiviral activity against Coxsackievirus A16 TA271 infected in ICR mouse assessed as mouse survival at 2 mg/kg, im measured on day 6 post infection relative to control; format: functional; settings: Enterovirus A, 144 h
Coxsackievirus A16 [21] = experiment: Antiviral activity against Coxsackievirus A16 TA271 infected in RD cells at release stage assessed as cell fragmentation at 0.08 uM/L preincubated with cells for 1 hr followed by replacement of fresh medium containing compounds after 5 hrs post infection and further incubated for 16 hrs post infection by inverted microscopic analysis; format: functional, cell-based
Coxsackievirus A16 [22] = experiment: Antiviral activity against Coxsackievirus A16 TA271 infected in ICR mouse assessed as reduction in muscle fiber breakage in heart at 2 mg/kg, im after 5 days post infection by H and E staining based histopathological analysis; format: functional, organism-based
Mus musculus [23] = experiment: Effect on IFN-gamma level in ICR mouse at 2 mg/kg, administered intramuscularly by ELISA; format: functional, organism-based
Coxsackievirus A16 [24] = experiment: Antiviral activity against Coxsackievirus A16 TA271 infected in ICR mouse assessed as mild alveolar wall thickening in spinal muscle at 2 mg/kg, im after 5 days post infection by H and E staining based histopathological analysis; format: functional, organism-based
Coxsackievirus A16 [25] = experiment: Antiviral activity against Coxsackievirus A16 TA271 infected in ICR mouse assessed as reduction in inflammatory cell infiltration in lung at 2 mg/kg, im after 5 days post infection by H and E staining based histopathological analysis; format: functional, organism-based
Coxsackievirus A16 [26] = experiment: Antiviral activity against Coxsackievirus A16 TA271 infected in RD cells at preinfection stage assessed as cell fragmentation at 0.08 uM/L preincubated with cells for 3 hrs followed by viral infection and measured after 1 hr by inverted microscopic analysis; format: functional, cell-based
Coxsackievirus A16 [27] = experiment: Antiviral activity against Coxsackievirus A16 TA271 infected in ICR mouse assessed as effect on virus-induced IL-6 level at 2 mg/kg, im after 3 days post infection by ELISA; format: functional, organism-based
Coxsackievirus A16 [28] = experiment: Antiviral activity against Coxsackievirus A16 TA271 infected in human RD cells assessed as inhibition of virus-induced cytopathic effect at 0.08 uM/L preincubated with viral suspension for 2 hrs followed by cell addition and measured after 24 hrs by CCK-8 assay relative to control; format: functional; settings: Enterovirus A
[29] = Toxicity in ICR mouse infected with Coxsackievirus A16 TA271 assessed as increase in body weight at 2 mg/kg, im and measured every day; format: organism-based; settings: in vivo

For `CC(=O)OC(CC=C(C)C)C1=CC(=O)c2c(O)ccc(O)c2C1=O` (centres undefined), the Activity (Coxsackievirus A16 [1]) was “inactive”, the Activity (Coxsackievirus A16 [2]) was “Active” and the Activity (Coxsackievirus A16 [3]) was “inactive”. The Activity (Coxsackievirus A16 [4]) was “Active”, the Activity (Coxsackievirus A16 [5]) was “Active” and the Activity (Coxsackievirus A16 [6]) was “Active”. For the same compound, the Activity (Coxsackievirus A16 [7]) was “Active”, the Activity (Coxsackievirus A16 [8]) was “inactive” and the Activity (Coxsackievirus A16 [9]) was “Active”. The Activity (Coxsackievirus A16 [10]) was “Active”, the Activity (Coxsackievirus A16 [11]) was “Active” and the Activity (Mus musculus [12]) was “inactive”. The survival at 0.08 µM (Coxsackievirus A16 [13]) was 70%, the Activity (Coxsackievirus A16 [14]) was “inactive” and the Activity (Coxsackievirus A16 [15]) was “inactive”. The Activity (Coxsackievirus A16 [16]) was “Active”, the Activity (Coxsackievirus A16 [17]) was “Active” and the Activity (Coxsackievirus A16 [18]) was “Active”. For the same compound, the selectivity ratio [19] was 235, the survival at 2 mg/kg (Coxsackievirus A16 [20]) was 50% and the Activity (Coxsackievirus A16 [21]) was “inactive”. The Activity (Coxsackievirus A16 [22]) was “Active”, the Activity (Mus musculus [23]) was “inactive” and the Activity (Coxsackievirus A16 [24]) was “Active”. For the same compound, the Activity (Coxsackievirus A16 [25]) was “Active”, the Activity (Coxsackievirus A16 [26]) was “inactive” and the Activity (Coxsackievirus A16 [27]) was “inactive”. The inhibition at 0.08 µM (Coxsackievirus A16 [28]) was 80% and the Activity [29] was “Non-Toxic”.

Reference: ChEMBL document CHEMBL4334442, “Effects of Acetylshikonin on the Infection and Replication of Coxsackievirus A16 in Vitro and in Vivo” (J Nat Prod, 2019)
